Results on 5 sequences are retold here after patent US20020111305A1, “Antiviral peptides” (priority 1998, published 2002).

Where no end group is shown, it is not given here.

One data set has as its system HIV-1 III-b. Description: HIV-1 neutralization assay (syncytia-forming on MT-2 cells). The data set is classed as cell-based, Human Immuno-deficiency Virus Type 1. The following applies: day 21; 457 TCID50 HIV per ml; 2 hours at 37° C.; maximum 800 μg/ml. The procedure: (§1) A neutralization assay was performed on HIV-1 III-b as substantially described by Groenink M. et al., J. Virol 69, 523-527 (1995). In short, this assay comes down to the virus-neutralizing capacity of the different peptides being tested with an inoculum of 457 TCID50HIV per ml per neutralization, which is incubated at 37° C. for two hours with a twofold dilution series of the peptide for testing (maximum 800 μg/ml final concentration). The incubations are performed in a 5 mM phosphate buffer. On day 7, 14 and 21 the neutralization is assessed on the basis of the detected cytopathic effect (syncytia-forming) on MT-2 cells.

For data set [1], the system named is Herpes Simplex Virus (HSV). Description: Antiviral activity against Herpes Simplex Virus (TCID50 on Vero-cells after pre-incubation with peptide). The format is cell-based. The procedure: In test phials 10 μl HSV (Department of Virology Academisch Ziekenhuis Leiden (Leiden University Hospital), lab strain 96-6700 P (TCID50 10^5-10^6), was supplemented with peptide and NaPB to 200 μl. For the positive control the peptide was replaced by a human neutrophil defensin pool (HNP1-3). The test phials were subsequently incubated at 37° C. for 3 hours. Tenfold dilutions were then made in Dulbecco's Modified Eagles Medium (DMEM) with 2% foetal calf serum (FSCi). Diverse peptides, synthesized in identical manner, were used as negative control in the experiments.
Vero-cells were isolated using detachment buffer (0.25% trypsin and 0.03% EDTA in PBS), washed and brought to a concentration of 2×10^5 cells per ml DMEM +2% FCSi. In 96 wells-plates (Nunclon) 100 μl cell suspension (2×10^4 cells) was added per well. Acyclovir (ACV) was added as control to several wells about two hours (t=−2 hours) before infection. 50 μl of a dilution was added to each well at the point in time t=0.
After 3 days incubation in a CO2-stove of 37° C. the cytopathological effect (cpe) was scored by counting under the microscope and the TCID50 (tissue culture […] dose) was determined using the Reed & Muench method (Dulbecco & Ginsberg, “Virology”, JB Lippincott Co., Philadelphia, 2nd edition, 1988).
The effectiveness of peptide 10 in time was then determined. […]

For a further data set, the system named is MT-2 cells. Nature of the data set: Cytotoxicity seen in the HIV-1 neutralization assay. To be noted: 800 μg/ml. The data set is classed as cell-based. The procedure: as §1

For the sequence KRLFKKLLFSLRKY [peptide 10], the “neutralizing capacity: μg/ml necessary for neutralization” value (from here on “neutralizing capacity: μg/ml necessary”) with HIV-1 III-b turned out to be 200 µg/mL. Further, the “activity against HSV compared with HNP, dilution series (FIG. 3)” value in data set [1] (in high concentrations) is reported as “more effective than HNP”. Further, the “effectiveness against HSV compared with acyclovir and HNP (FIG. 1)” value in data set [1] (peptide at sufficiently high concentrations (50 μg/ml), 3 hours at 37° C.) was “at least as effective as acyclovir and HNP”.

As to “KRKFHEKHHSHRGY [dh-5, the C-terminal part of histatin 5, reference compound]”, in the data set on HIV-1 III-b, the “neutralizing capacity: μg/ml necessary” value is “no neutralisation”.

For the sequence KRLFKELLFSLRKY [peptide 4], the “neutralizing capacity: μg/ml necessary” value in the data set with HIV-1 III-b came out at 200 µg/mL.

With “LLLFLLKKRKKRKY [peptide 11, LLLFLLKKRKKRKY]”, the “cytotoxicity at the highest concentration” value in the data set with MT-2 cells was “# peptide 11 was cytoxic at the highest concentration (800 μg/ml)”.

“DSHAKRHHGYKRKFHEKHHSHRGY [his 5, reference compound]”: in the data set with HIV-1 III-b, the “neutralizing capacity: μg/ml necessary” value is reported as “no neutralization”.
